Source: article PMC3914206

Assays:
Type in all cases: binding
[1] = biological target: T1, panel of 442 kinases (Homo sapiens, UniProt O95747); conditions: Compound Concentration 10 µM
T1 construct: purchased KINOMEscan
From the text: (§1) We assessed the selectivity of members of this scaffold using the KINOMEscan methodology across a near comprehensive panel of 442 kinases [[18,27]].

[2] = test system: panel of 442 kinases; conditions: for KINOMEscan: EGFR(L747-E749del, A750P) / KINOMEscan: EGFR(L747-S752del, P753S) / KINOMEscan: EGFR(L747-T751del,Sins) / KINOMEscan: FLT3(ITD): Compound Concentration 10 µM; for Number of score not higher than 10: of 442 total assayed kinases, % Ctrl ≤ 10; for Number of score not higher than 10 / S10: compound concentration 10 µM; for S10: selectivity score = (number of kinases with %Ctrl ≤ 10)/total number of kinases tested (442)
From the text: as §1

[3] = biological target: T2, panel of 442 kinases (Homo sapiens, UniProt P04049); conditions: Compound Concentration 10 µM
T2 construct: purchased KINOMEscan
T2 sequence (P04049 whole entry): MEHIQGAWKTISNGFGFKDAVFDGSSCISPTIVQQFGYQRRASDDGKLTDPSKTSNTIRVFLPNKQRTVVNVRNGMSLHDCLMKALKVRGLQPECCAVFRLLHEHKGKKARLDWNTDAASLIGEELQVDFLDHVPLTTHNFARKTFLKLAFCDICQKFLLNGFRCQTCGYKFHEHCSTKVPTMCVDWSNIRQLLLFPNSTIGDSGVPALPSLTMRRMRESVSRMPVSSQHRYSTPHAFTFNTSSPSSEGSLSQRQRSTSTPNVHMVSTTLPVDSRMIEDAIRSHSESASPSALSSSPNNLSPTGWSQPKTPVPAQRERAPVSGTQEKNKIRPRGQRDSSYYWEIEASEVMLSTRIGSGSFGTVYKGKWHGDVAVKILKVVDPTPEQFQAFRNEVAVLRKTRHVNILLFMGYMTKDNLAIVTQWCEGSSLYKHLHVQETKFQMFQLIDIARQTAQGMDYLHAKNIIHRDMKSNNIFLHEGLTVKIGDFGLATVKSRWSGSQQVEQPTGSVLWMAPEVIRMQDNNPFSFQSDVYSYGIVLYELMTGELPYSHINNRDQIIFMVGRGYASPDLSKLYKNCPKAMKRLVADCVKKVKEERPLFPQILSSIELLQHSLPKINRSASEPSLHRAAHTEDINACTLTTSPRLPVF
From the text: as §1

T1 sequence (O95747 whole entry): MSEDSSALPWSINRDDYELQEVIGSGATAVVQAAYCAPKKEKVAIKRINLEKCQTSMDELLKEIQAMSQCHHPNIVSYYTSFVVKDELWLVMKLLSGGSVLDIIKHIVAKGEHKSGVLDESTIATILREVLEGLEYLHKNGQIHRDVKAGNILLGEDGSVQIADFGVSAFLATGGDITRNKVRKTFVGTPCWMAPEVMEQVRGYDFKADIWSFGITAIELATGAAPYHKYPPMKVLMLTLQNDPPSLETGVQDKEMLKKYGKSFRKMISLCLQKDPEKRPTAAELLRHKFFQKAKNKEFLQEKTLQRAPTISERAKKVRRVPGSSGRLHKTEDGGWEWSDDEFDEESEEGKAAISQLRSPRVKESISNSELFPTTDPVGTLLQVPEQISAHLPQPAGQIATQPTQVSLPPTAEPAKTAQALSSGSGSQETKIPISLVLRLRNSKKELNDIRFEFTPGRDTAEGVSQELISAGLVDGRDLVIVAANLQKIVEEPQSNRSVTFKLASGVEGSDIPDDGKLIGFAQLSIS

Row | Compound | KINOMEscan: OSR1 [1] | KINOMEscan: EGFR(L747-E749del, A750P) [2] | KINOMEscan: EGFR(L747-S752del, P753S) [2] | KINOMEscan: EGFR(L747-T751del,Sins) [2] | KINOMEscan: FLT3(ITD) [2] | Number of score not higher than 10 [2] | S10 [2] | KINOMEscan: RAF1 [3] | KINOMEscan selectivity score (S10) ([2]; screened at 10 μM, 442 kinases)
1 | COc1cc(C(=O)N2CCC(N3CCN(C)CC3)CC2)ccc1Nc1ncc2c(n1)N(C)c1ccccc1C(=O)N2C [15 (LRRK2-IN-1)] | 88 | 78 | 84 | 100 | 100 | 16 | 0.036 | 100 | –
2 | COc1cc(C(=O)N2CCC(N3CCN(C)CC3)CC2)ccc1Nc1ncc2c(n1)N1CCc3cccc(c31)C(=O)N2C [Compound 24] | 100 | – | – | – | – | – | – | – | –
3 | COc1cc(C(=O)N2CCC(N3CCN(C)CC3)CC2)ccc1Nc1ncc2c(n1)N(C1CCCC1)c1ccccc1C(=O)N2C [Compound 25, 11-cyclopentyl-2-((2-methoxy-4-(4-(4-methylpiperazin-1-yl)piperidine-1-carbonyl)phenyl)amino)-5-methyl-5H-benzo[e]pyrimido[5,4-b][1,4]diazepin-6(11H)-one] | 100 | 85 | 74 | 76 | 100 | 8 | 0.018 | 100 | 0.018
4 | CCOc1cc(C(=O)N2CCC(N3CCN(C)CC3)CC2)ccc1Nc1ncc2c(n1)N(C1CCCC1)c1ccccc1C(=O)N2C [Compound 26] | 99 | 100 | 100 | 100 | 100 | 3 | 0.007 | 100 | –
